Data from patent publication US7456185B2, “Substituted quinazoline compounds useful as p38 kinase inhibitors” (Roche Palo Alto LLC, priority 2003, dated 2008).

Row | Compound | melting point [°C]
1 | OCCC(CCO)Nc1ncc2cc(Oc3ccc(F)cc3F)ccc2n1 [Example 3, 3-[6-(2,4-Difluorophenoxy)-quinazolin-2-ylamino]-pentane-1,5-diol] | 112.9 to 113.6
2 | OCC(O)CNc1ncc2cc(Oc3ccc(F)cc3F)ccc2n1 (centres unmarked) [Example 4, 3-[6-(2,4-Difluoro-phenoxy)-quinazolin-2-ylamino]-propane-1,2-diol] | 161.5 to 162.7
3 | CC(C)Nc1ncc2cc(Oc3ccc(F)cc3F)ccc2n1 [Example 2] | 160 to 162.6
4 | CCC(CO)(CO)Nc1ncc2cc(Oc3ccc(F)cc3F)ccc2n1 [Example 1, 2-[6-(2,4-Difluoro-phenoxy)-quinazolin-2-ylamino]-2-ethyl-propane-1,3-diol] | 110 to 112.9
5 | CS(=O)(=O)CCNc1ncc2cc(Oc3ccc(F)cc3F)ccc2n1 [Example 5] | 160.1 to 161.5

Second part, the molecule after the results:

Row | melting point [°C] | Compound
6 | 176.2 to 176.8 | OC1CCC(Nc2ncc3cc(Oc4ccc(F)cc4F)ccc3n2)CC1 (centres unmarked) [Example 8, 4-[6-(2,4-Difluoro-phenoxy)-quinazolin-2-ylamino]-cyclohexanol]
7 | 173.9 to 177.1 | CS(=O)(=O)N1CCC(Nc2ncc3cc(Oc4ccc(F)cc4F)ccc3n2)CC1 [Example 6]
8 | 152.7 to 154.6 | CCOc1ccc2nc(NCC[S+](C)[O-])ncc2c1 (centres unmarked) [Example 11, (6-Ethoxy-quinazolin-2-yl)-(2-methanesulfinyl-ethyl)-amine]
